Data from patent publication US7176222B2, “Syntheses of ureas” (Cytokinetics, Inc., priority 2004, dated 2007).

melting point: 145 °C
Compound: CC(=O)N1CCC[C@@H](Oc2cc(F)cc(NC(=O)Nc3cccnc3)c2)C1 [Example 1, (R)-1-[3-(1-Acetyl-piperidin-3-yloxy)-5-fluoro-phenyl]-3-pyridin-3-yl-urea]
